Usually Ki stands for the dissociation constant of the complex between target and ligand, obtained from inhibition or displacement. Low values mean a stronger hold on the target, high ones a looser hold on the target. A word on the EC50: it is the concentration needed to bring the measured effect to its halfway point. The IC50 is the concentration that inhibits the measured activity by half.

We go through three compounds from US20060270634A1, “Acetal phosphate-derived LPA mimics, PPARgamma activators, and autotaxin inhibitors” (priority 2005, published 2006).

Experiment [1] has as its target T1, LPA3 (Homo sapiens, UniProt Q9UBY5).
T1 sequence (Q9UBY5 1-353): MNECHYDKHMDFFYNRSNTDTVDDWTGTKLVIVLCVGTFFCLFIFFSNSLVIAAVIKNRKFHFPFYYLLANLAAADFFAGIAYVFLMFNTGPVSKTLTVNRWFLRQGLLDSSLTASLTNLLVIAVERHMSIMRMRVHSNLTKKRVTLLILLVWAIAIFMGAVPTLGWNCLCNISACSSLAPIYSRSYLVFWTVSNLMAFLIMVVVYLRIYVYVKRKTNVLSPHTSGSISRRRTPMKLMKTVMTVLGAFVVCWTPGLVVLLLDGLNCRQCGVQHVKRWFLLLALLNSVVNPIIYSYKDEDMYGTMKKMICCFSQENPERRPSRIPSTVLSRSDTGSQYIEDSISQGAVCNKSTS
The experiment can be described thus: Ca2+ transients in RH7777 cells expressing LPA3 (agonist / inhibition of LPA response). Particulars: for EC50: read-out: LPA3 EC50; for IC50: read-out: LPA3 IC50.
Protocol: (§2) Synthesized compounds were tested for induction and inhibition of LPA-induced calcium transients in rat hepatoma (RH7777) cell lines that stably express individual LPA1, LPA2, and LPA3 receptors as described in the literature using a FlexStation II automated fluorimeter (Molecular Devices, Sunnyvale, Calif.).

Experiment [2] deals with T2, LPA1 (Homo sapiens, UniProt Q92633). The experiment can be described thus: Ca2+ transients in RH7777 cells expressing LPA1 (agonist / inhibition of LPA response). The following applies: for EC50: read-out: LPA1 EC50.
T2 sequence (Q92633 whole entry, species assumed): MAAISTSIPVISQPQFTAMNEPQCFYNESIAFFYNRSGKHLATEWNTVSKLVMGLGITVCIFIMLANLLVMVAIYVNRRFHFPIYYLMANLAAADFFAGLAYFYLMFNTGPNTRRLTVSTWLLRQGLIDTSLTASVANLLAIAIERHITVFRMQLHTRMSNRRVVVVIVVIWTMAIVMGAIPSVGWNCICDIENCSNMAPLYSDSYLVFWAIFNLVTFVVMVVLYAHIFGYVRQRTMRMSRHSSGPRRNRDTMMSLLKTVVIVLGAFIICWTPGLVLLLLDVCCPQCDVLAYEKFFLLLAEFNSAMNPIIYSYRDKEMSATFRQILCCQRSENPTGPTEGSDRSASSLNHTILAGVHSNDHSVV
Protocol: as §2
For the next experiment, the target named is T3, PPARγ (Homo sapiens, UniProt P37231).
T3 construct: expressed in transfected cells; host or cells: CV1 cells (African green monkey kidney)
T3 sequence (P37231 1-505): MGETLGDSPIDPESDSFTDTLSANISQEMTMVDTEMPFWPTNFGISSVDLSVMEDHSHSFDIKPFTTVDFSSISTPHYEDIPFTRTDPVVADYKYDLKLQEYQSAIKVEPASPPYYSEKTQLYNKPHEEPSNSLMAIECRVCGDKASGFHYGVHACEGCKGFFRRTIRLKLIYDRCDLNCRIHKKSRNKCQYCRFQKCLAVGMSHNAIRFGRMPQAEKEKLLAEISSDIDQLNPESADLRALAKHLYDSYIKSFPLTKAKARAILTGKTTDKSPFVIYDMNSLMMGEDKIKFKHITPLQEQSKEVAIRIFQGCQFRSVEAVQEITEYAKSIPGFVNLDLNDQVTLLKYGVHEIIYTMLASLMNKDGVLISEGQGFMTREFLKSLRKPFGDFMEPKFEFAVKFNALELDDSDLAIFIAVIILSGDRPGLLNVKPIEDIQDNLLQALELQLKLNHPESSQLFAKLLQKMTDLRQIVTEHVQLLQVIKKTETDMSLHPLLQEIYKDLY
The experiment can be described thus: PPARγ activation, PPRE-Acox-Rluc reporter gene assay in CV1 cells. Format: cell-based. The following applies: Table 3. The protocol: (§1) The biological effects of all synthesized compounds were testing using three high-throughput assays. First, intracellular calcium transients in rat hepatoma (RH777, an LPA receptor null cell) cell lines individually expressing either LPA1, LPA2, and LPA3 receptors were analyzed to evaluate compounds as agonists or antagonists. […] The PPRE-Acox-Rluc construct contains a renilla luciferase coding region, an acyl-CoA oxidase coding region, and a PPAR response element coding region. Third, inhibition of the lysophospholipase D autotoxin was determined using a previously described procedure.
PPARγ is a lipid-activated transcription factor that belongs to the nuclear hormone superfamily. The inventors examined the activity of all synthesized Darmstoff analogs as PPARγ activators in vitro in CV1 cells using a PPRE-Acox-Rluc reporter gene assay. Rosiglitazone, a known PPARγ agonist, was used as a positive control for comparison.
RH7777 cells, which lack LPA GPCR, were stably transfected with individual LPA1, LPA2 and LPA3 receptors and used for the in vitro screening.
Unlike the enantiospecific responses compounds at LPA GPCR by APA analogs, there was no stereoselectivity observed in PPARγ activation by these analogs.
(In general: In a reporter assay the amount or activity of a reporter protein is the signal.)

The subject of the next experiment is PC3 cells. As to the kind of experiment: Calcium mobilization response in PC3 cells. Format: cell-based. The following applies: Homo sapiens, read-out: PC3 cells IC50. (A change in cytosolic calcium serves as a functional read-out for many receptors and channels.)
The target of experiment [3] is lysophospholipase D (autotaxin, ATX) (Homo sapiens, UniProt Q13822). The experiment can be described thus: Inhibition of lysophospholipase D autotaxin. Format: biochemical. Particulars: Table 3. How it is done:
as §1
LPA is liberated as the product of lysophosphatidylcholine hyrolysis by the lysophospholipase D, autotaxin (ATX). The inventors screened Darmstoff analogs for ATX inhibition. As indicated by the data, all tested analogs are capable of ATX inhibition independently of their ligand properties at LPA GPCR and PPARγ.

A further experiment deals with LPA2 (Homo sapiens, UniProt Q9HBW0). As to the kind of experiment: Ca2+ transients in RH7777 cells expressing LPA2 (agonist / inhibition of LPA response).
Chain of LPA2 (Q9HBW0 whole entry, species assumed): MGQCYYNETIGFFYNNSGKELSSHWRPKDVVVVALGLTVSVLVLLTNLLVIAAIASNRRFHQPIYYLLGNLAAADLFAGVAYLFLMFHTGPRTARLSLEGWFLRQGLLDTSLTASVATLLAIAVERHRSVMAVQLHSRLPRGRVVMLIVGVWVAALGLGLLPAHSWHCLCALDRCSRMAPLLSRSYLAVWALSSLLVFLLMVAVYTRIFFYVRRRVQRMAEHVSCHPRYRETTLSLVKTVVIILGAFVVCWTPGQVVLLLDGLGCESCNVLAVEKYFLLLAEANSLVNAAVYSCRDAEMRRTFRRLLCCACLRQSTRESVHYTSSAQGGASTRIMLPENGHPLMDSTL
In experiment [4] the target is T2, LPA1. The arrangement: expressed in transfected cells; host or cells: RH7777 rat hepatoma cells. The following applies: cited from earlier work.
Experiment [5] deals with T1, LPA3. The arrangement: expressed in transfected cells; host or cells: RH7777 rat hepatoma cells. Particulars: cited from earlier work.
[6] abbreviates: Table 3, maximal efficacy of drug/maximal efficacy of LPA 18:1.

Where two headings read alike, the source gives them in different places.

Protocol for LPA2: as §2

As for `CCCCCCCCCCCCC1OCC(COP(=O)(O)O)O1` (stereo not shown) [Analog 12], the Ki came out at 681 nM at LPA3 [1] and 652 nM on LPA1 [2]. The “LPA3 agonist/antagonist activity in words” value at LPA3 [1] is recorded as “pantagonist”. The concentration for a half-maximal effect (EC50) at LPA3 [1] (Table 3) is above 30000 nM; on LPA1 [2] (Table 3) it was above 30000 nM; on LPA2 (LPA2 EC50, *transient), 1180 nM; on LPA2 (LPA2 EC50, Table 3), above 30000 nM. Also, the 50% inhibitory concentration (IC50) at LPA3 [1] (200 nM LPA) was determined as 2870 nM; on LPA3 [1] (Table 3) it was 2870 nM; on LPA1 [2] (LPA1 IC50, 200 nM LPA), 1110 nM; on LPA1 [2] (LPA1 IC50, 300 nM LPA) it was 2150 nM; on LPA1 [2] (LPA1 IC50, Table 3), 1110 nM; on LPA1 [2] (RH-LPA1 cells IC50, inhibition of 200 nM LPA response) it was 1110 nM. The concentration for half-maximal inhibition (IC50) at LPA1 [2] (RH-LPA1 cells IC50, inhibition of 300 nM LPA response) was determined as 2150 nM; in the experiment on PC3 cells (PC-3, inhibition of 100 nM LPA response) it was 1860 nM; in the experiment on PC3 cells (PC-3, inhibition of 300 nM LPA response) it was 2110 nM; in experiment [3], 232 nM; on LPA2 (RH-LPA2 cells IC50, inhibition of 200 nM LPA response) it was 397 nM; on LPA2 (RH-LPA2 cells IC50, inhibition of 300 nM LPA response) it was 657 nM. On LPA1 [2], the “LPA1 agonist/antagonist activity in words” value was “pantagonist”. For the same compound, on PPARγ, the PPARγ result was “Agonist”. The “ATX (% inhib.)” value in experiment [3] is listed as 26%. Moreover, on LPA2, the “LPA2 agonist/antagonist activity in words” value is “pantagonist”.

Consider `CCCCCCCCC=CCCCCCCCC1OCC(COP([O-])(O)=S)O1.[K+]` (stereo not shown) [Analog 38], for which the “LPA3 agonist/antagonist activity in words” value on LPA3 [1] is “full agonists”. The “LPA3 (Emax)” value on LPA3 [1] (setting [6]) was 102%. In addition, the EC50 at LPA3 [1] (Table 3) came to 204 nM; on LPA1 [2] (Table 3), 2260 nM; on LPA2 (read-out: LPA2 EC50, Table 3), 1540 nM. Moreover, the IC50 at LPA3 [1] (Table 3) was above 30000 nM; on LPA1 [2] (read-out: LPA1 IC50, Table 3) it was above 30000 nM; in experiment [3] it was 363 nM; at LPA2 (read-out: LPA2 IC50, Table 3) it was above 30000 nM. Besides, the “LPA1 agonist/antagonist activity in words” value at LPA1 [2] is “pan-agonists”. In addition, at LPA1 [2] (setting [6]), the “LPA1 (Emax)” value turned out to be 68%. On PPARγ, the PPARγ result was “Agonist”. Further, the “ATX (% inhib.)” value in experiment [3] amounted to 64%. Besides, on LPA2, the “LPA2 agonist/antagonist activity in words” value is given as “pan-agonists”. Further, the “LPA2 (Emax)” value at LPA2 (setting [6]) is listed as 72%.

Regarding “dioctanoyl glycerol pyrophosphate [DGPP 8:0]”, the “LPA1 activity in words, previously reported” value at LPA1 [4] is given as “antagonists”. Also, the “LPA3 activity in words, previously reported” value at LPA3 [5] is “antagonists”.
